Reference: patent publication US9499502B2, “5-substituted iminothiazines and their mono- and dioxides as BACE inhibitors, compositions, and their use” (Merck Sharp & Dohme Corp., priority 2011, dated 2016)
Read-outs that look alike come from different tables or passages of the source.

Experiments:
[1] = biological target: soluble human BACE1 catalytic domain (Homo sapiens (Human), UniProt P56817); experiment: BACE1 HTRF FRET Assay; settings: for inhibition at 10 µM: read-out: BACE1 inhibition, % Inh. at 10 μM, at 10 μM
soluble human BACE1 catalytic domain, sequence (P56817 75-416): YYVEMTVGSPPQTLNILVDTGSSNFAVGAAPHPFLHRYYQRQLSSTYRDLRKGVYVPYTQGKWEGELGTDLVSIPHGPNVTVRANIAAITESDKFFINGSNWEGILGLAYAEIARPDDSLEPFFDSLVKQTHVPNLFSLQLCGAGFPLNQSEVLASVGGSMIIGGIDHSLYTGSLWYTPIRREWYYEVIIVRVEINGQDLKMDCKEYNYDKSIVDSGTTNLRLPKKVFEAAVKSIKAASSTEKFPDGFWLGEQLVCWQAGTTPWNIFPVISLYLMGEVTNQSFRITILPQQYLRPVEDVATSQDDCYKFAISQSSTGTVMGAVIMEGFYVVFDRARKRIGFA

[2] = biological target: purified human autoBACE-2 (Homo sapiens (Human), UniProt Q9Y5Z0); experiment: BACE-2 Assay (BACE-HTRF assay); type: biochemical; settings: for Ki: Ki calculated from IC50 using the Cheng-Prusoff equation, read-out: BACE2 Ki; for inhibition at 10 µM: read-out: inhibition of BACE2 at 10 μM
purified human autoBACE-2, sequence (Q9Y5Z0 63-473): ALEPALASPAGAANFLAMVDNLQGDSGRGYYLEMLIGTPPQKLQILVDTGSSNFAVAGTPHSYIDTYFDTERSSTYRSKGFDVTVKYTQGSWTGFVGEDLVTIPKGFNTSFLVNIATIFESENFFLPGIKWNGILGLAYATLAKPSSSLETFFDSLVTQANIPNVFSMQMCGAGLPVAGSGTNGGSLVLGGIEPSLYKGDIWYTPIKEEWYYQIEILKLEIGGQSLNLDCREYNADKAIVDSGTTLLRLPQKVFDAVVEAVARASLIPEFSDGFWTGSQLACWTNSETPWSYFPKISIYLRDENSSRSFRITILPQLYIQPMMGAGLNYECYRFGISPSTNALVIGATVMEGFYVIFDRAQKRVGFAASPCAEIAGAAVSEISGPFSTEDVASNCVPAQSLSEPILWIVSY
Outline: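 Endpoint proteolysis of a QSY7/europium FRET peptide by purified human autoBACE-2, 5% DMSO final, read by time-resolved fluorescence at 620 nm after 320 nm excitation.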

SMILES	Ki ([1]; read-out: BACE1 Ki)	Ki [2]	further results
C[C@@]1(c2sc(-c3cccc(C#N)c3)cc2F)CS(=O)(=O)[C@@](C)(c2ccccc2F)C(=N)N1 [Example 27bs-a]	68.3 nM	9 nM	
Cc1nc2cc(CC3(C)C(=N)N[C@](C)(c4cc(F)ccc4F)CS3(=O)=O)ccc2s1 (stereo partly drawn) [Example 32-a]			BACE1 inhibition, % Inh. at 10 μM ([1]; at 10 μM): 0% Inh at 10 μM; inhibition at 10 µM [2]: 1 to 24%
COc1cccc([C@]2(C)C(=N)N[C@](C)(c3cc(F)ccc3F)CS2(=O)=O)c1 [Example 32e-b]			inhibition at 10 µM [1]: 22%; inhibition at 10 µM [2]: 1 to 24%
C[C@@]1(c2ccc(F)cc2F)CS(=O)(=O)[C@@](C)(c2cccc(Br)c2)C(=N)N1 [Example 32g-a]	381 nM	145 nM	
C[C@@]1(c2ccc(F)cc2F)CS(=O)(=O)[C@@](C)(c2cccc(C(F)(F)F)c2)C(=N)N1 [Example 32h-a]	362 nM	126 nM	
C[C@@]1(c2cccc(OCc3ccccc3)c2)C(=N)N[C@](C)(c2cc(F)ccc2F)CS1(=O)=O [Example 34d-b]			inhibition at 10 µM [1]: 16%; inhibition at 10 µM [2]: 10%
CC1(C)C(=N)N[C@](C)(c2cc(-c3cccc(C#N)c3)ccc2F)CS1(=O)=O [compound 10]		< 200 nM	inhibition at 1 µM ([1]; read-out: BACE1 % Inh. at 1 μM, at 1 μM): 36%

Continued, in another order:

Ki ([1]; read-out: BACE1 Ki)	Ki [2]	SMILES	further results
18 nM	≤ 10 nM	COc1cccc2cc(-c3cc(Cl)c([C@]4(C)CS(=O)(=O)[C@@](C)(CC5CCOCC5)C(=N)N4)s3)[nH]c12 [Example 27bx]	
74.5 nM	≤ 10 nM	CC1(C)C(=N)N[C@](C)(c2sc(-c3cccc(C(F)(F)F)c3)cc2Cl)CS1(=O)=O [Example 27e]	
92.2 nM	≤ 10 nM	CC1(C)C(=N)N[C@](C)(c2sc(-c3cncc(Cl)c3)cc2Cl)CS1(=O)=O [Example 27l]	
64.9 nM	≤ 10 nM	CC1(C)C(=N)N[C@](C)(c2sc(-c3cc(Cl)cc(C#N)c3)cc2Cl)CS1(=O)=O [Example 27s]	
49.2 nM	≤ 10 nM	CC1(C)C(=N)N[C@](C)(c2sc(-c3cccc(-n4nccn4)c3)cc2Cl)CS1(=O)=O [Example 27u]	
	517 nM	COc1ccccc1Nc1ccc(F)c(C2(C)CS(=O)(=O)C(C)(C)C(=N)N2)n1 (stereo not drawn) [Example 30a]	Ki ([1]; BACE1 Ki (nM)): 5280 nM
22 nM	5 nM	CC1(C)C(=N)N[C@](C)(c2cc(Nc3noc4cc(F)cnc34)ccc2F)CS1(=O)=O [Example 30b]	
6080 nM	1400 nM	CC1(C)C(=N)N[C@](C)(c2sc(N3Cc4cc(F)ccc4C3=O)cc2Cl)CS1(=O)=O [Example 35a]	
